Measurements taken from US11427548B2 (Arvinas Operations, Inc., priority 2015, dated 2022).
Read-outs that look alike come from different tables or passages of the source.

What was measured:
Type in all cases: cell-based
VCaP cells = assay: VCaP cell proliferation assay (Cell Titer Glo), GI50; settings: Homo sapiens; VCaP cells, 0.1 nM R1881; Table 38 (ABM); read-out: GI50, Inhibition of VCaP Proliferation
Method: 2. VCaP Cell Proliferation Assay.
VCaP cells are plated 7,500/well 200 μL/well in VCaP assay medium [Phenol red free RPMI (Gibco Cat #11835-030); 5% Charcoal Stripped (Dextran treated) FBS (Omega Scientific, Cat #FB-04); Pen/Strep Life Technologies (Gibco Cat #: 10378-016); 0.1 nM R1881 (Sigma, Cat #R0908) is added upon the start of the assay, not during initial plating of the cells).
The assay was performed as follows: the cells are grown for a minimum of 3 days to deplete androgens; dosing of PROTACs and R1881 is performed as for AR ELISA; the baseline reading of Cell Titer Glo can be performed on day of dosing.
VCaP cells with 0.1 nM R1881 will double once in 4 days. Gently draw off 110 μL of media so as not to disturb the adherent cells; add 110 μL of CTG; incubate with slow shaking for 20 minutes; and read luminescence on a plate reader.

Androgen Receptor [1] = target: T1, Androgen Receptor (Homo sapiens, UniProt P10275+P40337, T878A); assay: Androgen Receptor ELISA assay (PathScan AR ELISA) in LNCaP cells: AR degradation, Dmax and DC50; settings: for DC50: concentration that caused 50% Androgen Receptor degradation
T1 construct: Compounds have been evaluated in this assay in LNCaP and/or VCaP cells utilizing similar protocols; endogenous in cells; host or cells: LNCaP cells
T1 sequence (P10275 whole entry T878A): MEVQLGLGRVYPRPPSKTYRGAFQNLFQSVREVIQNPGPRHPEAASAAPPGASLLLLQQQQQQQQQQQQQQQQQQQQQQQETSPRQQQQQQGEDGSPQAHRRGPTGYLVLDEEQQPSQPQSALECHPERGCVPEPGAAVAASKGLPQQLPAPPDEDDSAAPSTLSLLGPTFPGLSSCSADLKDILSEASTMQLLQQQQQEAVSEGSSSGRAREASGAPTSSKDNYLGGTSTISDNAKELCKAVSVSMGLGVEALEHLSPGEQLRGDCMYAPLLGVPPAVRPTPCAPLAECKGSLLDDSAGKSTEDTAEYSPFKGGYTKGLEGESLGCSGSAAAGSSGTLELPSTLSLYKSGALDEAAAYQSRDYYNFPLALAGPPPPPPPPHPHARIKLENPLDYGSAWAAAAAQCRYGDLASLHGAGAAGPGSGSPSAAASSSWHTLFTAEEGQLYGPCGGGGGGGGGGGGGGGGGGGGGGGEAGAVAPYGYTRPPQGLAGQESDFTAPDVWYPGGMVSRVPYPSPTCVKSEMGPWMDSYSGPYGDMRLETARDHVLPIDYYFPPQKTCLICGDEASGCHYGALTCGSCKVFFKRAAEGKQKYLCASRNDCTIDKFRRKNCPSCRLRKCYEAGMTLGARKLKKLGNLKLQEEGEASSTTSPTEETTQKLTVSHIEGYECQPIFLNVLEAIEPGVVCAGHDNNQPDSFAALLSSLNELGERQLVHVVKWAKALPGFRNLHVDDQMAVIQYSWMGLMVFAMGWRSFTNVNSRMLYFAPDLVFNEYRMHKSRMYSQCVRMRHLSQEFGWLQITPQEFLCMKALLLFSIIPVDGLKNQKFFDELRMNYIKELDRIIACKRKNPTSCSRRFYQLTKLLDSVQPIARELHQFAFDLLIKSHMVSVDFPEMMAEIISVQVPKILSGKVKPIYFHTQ
T1 sequence (P40337 whole entry): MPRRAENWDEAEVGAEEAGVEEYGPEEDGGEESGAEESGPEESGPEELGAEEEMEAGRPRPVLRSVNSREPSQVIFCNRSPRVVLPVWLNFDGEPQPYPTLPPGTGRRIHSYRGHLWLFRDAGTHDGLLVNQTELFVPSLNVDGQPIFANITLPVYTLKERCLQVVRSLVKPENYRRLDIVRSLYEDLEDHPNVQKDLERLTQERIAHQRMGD
T1 sequence (Q15369 whole entry partner): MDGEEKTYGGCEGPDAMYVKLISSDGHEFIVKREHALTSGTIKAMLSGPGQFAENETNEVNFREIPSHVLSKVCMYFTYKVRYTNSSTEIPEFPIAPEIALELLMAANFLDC
T1 sequence (Q15370 whole entry partner): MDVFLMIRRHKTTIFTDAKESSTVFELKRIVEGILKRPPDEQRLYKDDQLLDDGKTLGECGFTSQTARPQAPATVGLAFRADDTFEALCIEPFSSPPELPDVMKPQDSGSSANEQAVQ

Androgen Receptor [2] = target: T2, Androgen Receptor (Homo sapiens, UniProt P10275); assay: Androgen Receptor ELISA assay (PathScan AR ELISA) in VCaP cells: AR degradation, Dmax and DC50
T2 construct: endogenous in cells; host or cells: VCaP cells
T2 sequence (P10275 1-920): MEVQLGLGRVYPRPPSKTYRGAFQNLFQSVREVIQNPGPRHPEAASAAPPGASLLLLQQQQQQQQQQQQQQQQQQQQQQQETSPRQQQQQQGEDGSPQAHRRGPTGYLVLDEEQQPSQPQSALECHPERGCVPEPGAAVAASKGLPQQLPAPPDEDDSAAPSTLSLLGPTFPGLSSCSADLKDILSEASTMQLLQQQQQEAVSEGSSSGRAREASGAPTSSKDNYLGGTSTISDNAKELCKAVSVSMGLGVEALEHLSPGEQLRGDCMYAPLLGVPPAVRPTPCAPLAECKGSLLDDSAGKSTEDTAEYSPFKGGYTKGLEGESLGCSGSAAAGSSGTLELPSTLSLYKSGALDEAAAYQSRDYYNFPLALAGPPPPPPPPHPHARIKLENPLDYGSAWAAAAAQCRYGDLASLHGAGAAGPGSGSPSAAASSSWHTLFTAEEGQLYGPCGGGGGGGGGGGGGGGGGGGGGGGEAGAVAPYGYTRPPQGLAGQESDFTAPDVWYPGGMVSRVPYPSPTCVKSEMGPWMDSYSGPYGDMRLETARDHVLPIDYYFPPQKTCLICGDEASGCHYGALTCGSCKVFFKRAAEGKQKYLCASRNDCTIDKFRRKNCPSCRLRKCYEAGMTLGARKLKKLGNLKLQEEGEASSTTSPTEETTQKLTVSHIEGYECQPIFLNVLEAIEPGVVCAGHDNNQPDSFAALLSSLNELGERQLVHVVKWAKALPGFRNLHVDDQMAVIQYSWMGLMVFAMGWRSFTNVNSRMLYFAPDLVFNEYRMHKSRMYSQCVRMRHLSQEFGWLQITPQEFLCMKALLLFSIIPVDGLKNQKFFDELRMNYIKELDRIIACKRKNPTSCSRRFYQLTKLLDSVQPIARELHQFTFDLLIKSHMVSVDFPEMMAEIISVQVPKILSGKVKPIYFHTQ
Summary of the method: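 VCaP cells, 30,000/well, grown ≥3 days in phenol red-free RPMI with 5% charcoal-stripped FBS; compound added in 0.1% DMSO with 0.1 nM R1881, 7 half-log doses, 24 h. Lysate AR quantified by PathScan sandwich ELISA, HRP/TMB read at 450 nm, giving DC50 and Dmax.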

[3] = highest percentage of Androgen Receptor degradation observed
[4] = read-out: VCaP DC50; concentration that caused 50% Androgen Receptor degradation, VCaP cells
[5] = highest percentage of Androgen Receptor degradation

| Structure (SMILES) | GI50 (VCaP cells) [nM] | DC50 (Androgen Receptor [1]) [nM] | Dmax (Androgen Receptor [1]; [3]) [%] | Dmax (Androgen Receptor [2]; VCaP, read-out: VCaP Dmax (%)) [%] | other results |
| --- | --- | --- | --- | --- | --- |
| CC1(C)[C@H](NC(=O)c2cnn(CCO)c2)C(C)(C)[C@H]1Oc1ccc(C#N)c(Cl)c1 [ABM-34] | ≥ 251 |  |  |  |  |
| CC1(C)[C@H](N)C(C)(C)[C@H]1Oc1ccc(C#N)c(Cl)c1 [ABM-26] | 51 to 250 |  |  |  |  |
| CC1(C)[C@H](NC(=O)c2cnc(N)cn2)C(C)(C)[C@H]1Oc1ccc(C#N)c(Cl)c1 [ABM-31] | 51 to 250 |  |  |  |  |
| CC1(C)[C@H](NC(=O)c2ccc(NCCCCCO)cc2)C(C)(C)[C@H]1Oc1ccc(C#N)c(Cl)c1 [ABM-36] | ≤ 50 |  |  |  |  |
| CC(C)(C)OC(=O)COCCCCCNc1ccc(C(=O)N[C@H]2C(C)(C)[C@H](Oc3ccc(C#N)c(Cl)c3)C2(C)C)cc1 [ABM-37] | ≤ 50 |  |  |  |  |
| CC1(C)[C@H](N)C(C)(C)[C@@H]1Oc1ccc(C#N)c(Cl)c1 [ABM-27] | ≥ 251 |  |  |  |  |
| CC(C)(C)OC(=O)N[C@H]1C(C)(C)[C@H](Oc2ccc(C#N)c(Cl)c2)C1(C)C [ABM-29] | 51 to 250 |  |  |  |  |
| COc1ccc(C(=O)N[C@H]2C(C)(C)[C@H](Oc3ccc(C#N)c(Cl)c3)C2(C)C)cc1 [ABM-33] | 51 to 250 |  |  |  |  |
| Cc1ncsc1-c1ccc(CNC(=O)[C@@H]2C[C@@H](O)CN2C(=O)[C@@H](NC(=O)OCCOCCOc2ccc(-c3ccc(N4C(=S)N(c5ccc(C#N)c(C(F)(F)F)c5)C(=O)C4(C)C)cc3)cc2)C(C)(C)C)cc1 [Example 66, 2-(2-(4′-(3-(4-cyano-3-(trifluoromethyl)phenyl)-5,5-dimethyl-4-oxo-2-thioxoimidazolidin-1-yl)biphenyl-4-yloxy)ethoxy)ethyl (S)-1-((2S,4R)-4-hydroxy-2-(4-(4-methylthiazol-5-yl)benzylcarbamoyl)pyrrolidin-1-yl)-3,3-dimethyl-1-oxobutan-2-ylcarbamate] |  | 51 to 500 | 51 to 70 | 26 to 50 | DC50 (Androgen Receptor [2]; [4]): 51 to 500 nM |
| Cc1ncsc1-c1ccc(CNC(=O)[C@@H]2C[C@@H](O)CN2C(=O)[C@@H](NC(=O)COCCOc2cccc(CCCOc3ccc(N4C(=S)N(c5ccc(C#N)c(C(F)(F)F)c5)C(=O)C4(C)C)cc3)c2)C(C)(C)C)cc1 [Example 296] |  | 51 to 500 |  | 26 to 50 | Dmax (Androgen Receptor [1]; [5]): > 71%; DC50 (Androgen Receptor [2]; read-out: VCaP DC50; VCaP cells; concentration that caused 50% Androgen Receptor degradation): < 50 nM |
| Cc1ncsc1-c1ccc([C@H](C)NC(=O)[C@@H]2C[C@@H](O)CN2C(=O)[C@@H](NC(=O)COCCCOCCCCCOc2c(F)cc(N3C(=S)N(c4ccc(C#N)c(C(F)(F)F)c4)C(=O)C3(C)C)cc2F)C(C)(C)C)cc1 [Example 11, (2S,4R)-1-[(2S)-2-[2-(3-{[5-(4-{3-[4-cyano-3-(trifluoromethyl)phenyl]-5,5-dimethyl-4-oxo-2-sulfanylideneimidazolidin-1-yl}-2,6-difluorophenoxy)pentyl]oxy}propoxy)acetamido]-3,3-dimethylbutanoyl]-4-hydroxy-N-[(1S)-1-[4-(4-methyl-1,3-thiazol-5-yl)phenyl]ethyl]pyrrolidine-2-carboxamide] |  | < 50 | > 71 | 51 to 70 | DC50 (Androgen Receptor [2]; [4]): < 50 nM |
| CC1(C)[C@H](NC(=O)c2ccc(N)cc2)C(C)(C)[C@H]1Oc1ccc(C#N)c(Cl)c1 [ABM-30] | ≤ 50 |  |  |  |  |
| Cc1ncsc1-c1ccc(CNC(=O)[C@@H]2C[C@@H](O)CN2C(=O)[C@@H](NC(=O)COCCCCOC2CCN(C(=O)c3ccc(N4C(=S)N(c5ccc(C#N)c(C(F)(F)F)c5)C(=O)C4(C)C)cc3)CC2)C(C)(C)C)cc1 [Example 293] |  | 51 to 500 |  | < 25 | Dmax (Androgen Receptor [1]; [5]): 51 to 70% |
| Cc1ncsc1-c1ccc(CNC(=O)[C@@H]2C[C@@H](O)CN2C(=O)[C@@H](NC(=O)COCCCOCCCCCOc2ccc(N3C(=S)N(c4cnc(C#N)c(C(F)(F)F)c4)C(=O)C3(C)C)cc2)C(C)(C)C)cc1 [Example 2, (2S,4R)-1-((S)-2-(2-(3-(5-(4-(3-(6-cyano-5-(trifluoromethyl)pyridin-3-yl)-5,5-dimethyl-4-oxo-2-thioxoimidazolidin-1-yl)phenoxy)pentyloxy)propoxy)acetamido)-3,3-dimethylbutanoyl)-4-hydroxy-N-(4-(4-methylthiazol-5-yl)benzyl)pyrrolidine-2-carboxamide] |  |  | > 71 | 51 to 70 | DC50 (Androgen Receptor [2]; concentration that caused 50% Androgen Receptor degradation, VCaP cells; read-out: VCaP DC50): < 50 nM |
| Cc1ncsc1-c1ccc(CNC(=O)[C@@H]2C[C@@H](O)CN2C(=O)[C@H](C(C)C)N2Cc3c(CCCOCCOc4ccc(N5C(=S)N(c6ccc(C#N)c(C(F)(F)F)c6)C(=O)C5(C)C)cc4)cccc3C2=O)cc1 [Example 299] |  | 51 to 500 |  | 26 to 50 | Dmax (Androgen Receptor [1]; [5]): > 71% |
| Cc1ncsc1-c1ccc([C@H](C)NC(=O)[C@@H]2C[C@@H](O)CN2C(=O)[C@@H](NC(=O)COCCCCOCCCCOc2ccc(N3C(=S)N(c4ccc(C#N)c(C(F)(F)F)c4)C(=O)C3(C)C)cc2F)C(C)(C)C)cc1 [Example 25, (2S,4R)-1-[(2S)-2-(2-{4-[4-(4-{3-[4-cyano-3-(trifluoromethyl)phenyl]-5,5-dimethyl-4-oxo-2-sulfanylideneimidazolidin-1-yl}-2-fluorophenoxy)butoxy]butoxy}acetamido)-3,3-dimethylbutanoyl]-4-hydroxy-N-[(lS)-1-[4-(4-methyl-1,3-thiazol-5-yl)phenyl]ethyl]pyrrolidine-2-carboxamide] |  | < 50 | > 71 | 51 to 70 | DC50 (Androgen Receptor [2]; [4]): < 50 nM |
| Cc1ncsc1-c1ccc(CNC(=O)[C@@H]2C[C@@H](O)CN2C(=O)[C@@H](NC(=O)COCCOCCOc2ccc(-c3ccc(N4C(=S)N(c5ccc(C#N)c(C(F)(F)F)c5)C(=O)C4(C)C)cc3)cc2)C(C)(C)C)cc1 [Example 67, (2S,4R)-1-((S)-2-(2-(2-(2-(4′-(3-(4-cyano-3-(trifluoromethyl)phenyl)-5,5-dimethyl-4-oxo-2-thioxoimidazolidin-1-yl)biphenyl-4-yloxy)ethoxy)ethoxy)acetamido)-3,3-dimethylbutanoyl)-4-hydroxy-N-(4-(4-methylthiazol-5-yl)benzyl)pyrrolidine-2-carboxamide] |  | < 50 | > 71 | 26 to 50 | DC50 (Androgen Receptor [2]; [4]): < 50 nM |
| Cc1ncsc1-c1ccc(CNC(=O)[C@@H]2C[C@@H](O)CN2C(=O)[C@@H](NC(=O)COCCCCCN(C)C(=O)CCCc2ccc(N3C(=S)N(c4ccc(C#N)c(C(F)(F)F)c4)C(=O)C3(C)C)cc2)C(C)(C)C)cc1 [Example 65, (2S,4R)-1-[(2S)-2-[2-({5-[4-(4-{3-[4-cyano-3-(trifluoromethyl)phenyl]-5,5-dimethyl-4-oxo-2-sulfanylideneimidazolidin-1-yl}phenyl)-N-methylbutanamido]pentyl}oxy)acetamido]-3,3-dimethylbutanoyl]-4-hydroxy-N-{[4-(4-methyl-1,3-thiazol-5-yl)phenyl]methyl}pyrrolidine-2-carboxamide] |  | 51 to 500 | 51 to 70 | 51 to 70 | DC50 (Androgen Receptor [2]; [4]): < 50 nM |
| Cc1ncsc1-c1ccc(CNC(=O)[C@@H]2C[C@@H](O)CN2C(=O)[C@@H](NC(=O)COCC#CC#CCOc2ccc(N3C(=S)N(c4ccc(C#N)c(C(F)(F)F)c4)C(=O)C3(C)C)cc2)C(C)(C)C)cc1 [Example 54, (2S,4R)-1-((S)-2-(2-(6-(4-(3-(4-cyano-3-(trifluoromethyl)phenyl)-5,5-dimethyl-4-oxo-2-thioxoimidazolidin-1-yl)phenoxy)hexa-2,4-diynyloxy)acetamido)-3,3-dimethylbutanoyl)-4-hydroxy-N-(4-(4-methylthiazol-5-yl)benzyl)pyrrolidine-2-carboxamide] |  | > 501 | < 25 | > 71 |  |
